Reference: patent US12655116B2, “Substituted isophthalic acid diamides” (Bayer Aktiengesellschaft, priority 2020, dated 2026)

Experiments:
[1] = tested on: AVEFA; test: Pre-emergence herbicidal action against AVEFA; type: in vivo, Avena fatua; details: 80 g/ha, pre-emergence
How it was run: (§1)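 Greenhouse pots of sandy loam held seeds covered with soil, onto which the compound was applied before emergence. An aqueous suspension or emulsion of WP or EC was used at 600 to 800 l/ha with 0.2% wetting agent. Percent damage was judged visually at 3 weeks.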

[2] = tested on: ALOMY; test: Post-emergence herbicidal action against ALOMY; type: in vivo, Alopecurus myosuroides; details: dosage 20 g/ha, visual assessment about 3 weeks after treatment vs untreated controls
How it was run: (§2)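 A WP or EC formulation diluted in water with 0.2% wetting agent was sprayed at 600 to 800 l/ha onto one-leaf-stage plants grown in sandy loam. About 3 weeks later, action was rated visually in percent, 100% being dead plants.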

[3] = tested on: PHBPU; test: Post-emergence herbicidal action against PHBPU; type: in vivo, Pharbitis purpurea
How it was run: as §2

[4] = tested on: ECHCG; test: Pre-emergence herbicidal action against ECHCG; type: in vivo, Echinochloa crus-galli
How it was run: as §1

[5] = tested on: STEME; test: Pre-emergence herbicidal action against STEME; type: in vivo, Stellaria media
How it was run: as §1

[6] = tested on: AMARE; test: Post-emergence herbicidal action against AMARE; type: in vivo, Amaranthus retroflexus; details: 20 g/ha, visual assessment about 3 weeks after treatment, 100% = plants have died, 0% = like control plants
How it was run: as §2

[7] = tested on: HORMU; test: Post-emergence herbicidal action against HORMU; type: in vivo, Hordeum murinum; details: dosage 20 g/ha
Description: Seeds of monocotyledonous and dicotyledonous weed and crop plants are laid out in sandy loam soil in wood-fiber pots, covered with soil and cultivated in a greenhouse under good growth conditions. 2 to 3 weeks after sowing, the test plants are treated at the one-leaf stage. The compounds of the invention, formulated in the form of wettable powders (WP) or as emulsion concentrates (EC), are then sprayed onto the green parts of the plants in the form of an aqueous suspension or emulsion at a water application rate equivalent to 600 to 800 l/ha, with addition of 0.2% wetting agent. After the test plants have been left to stand in the greenhouse under optimal growth conditions for about 3 weeks, the action of the preparations is assessed visually in comparison to untreated controls (herbicidal action in percent (%): 100% activity=the plants have died, 0% activity=like control plants). […] The tables below illustrate, in an illustrative manner, the post-emergence herbicidal action of the compounds of the invention, the herbicidal activity being stated in percent.

[8] = tested on: VERPE; test: Post-emergence herbicidal action against VERPE; type: in vivo, Veronica persica; details: 20 g/ha
How it was run: as §2

[9] = tested on: DIGSA; test: Post-emergence herbicidal action against DIGSA; type: in vivo, Digitaria sanguinalis
How it was run: as §2

[10] = tested on: MATIN; test: Pre-emergence herbicidal action against MATIN; type: in vivo, Matricaria inodora
How it was run: as §1

[11] = tested on: SETVI; test: Pre-emergence herbicidal action against SETVI; type: in vivo, Setaria viridis; details: dosage 80 g/ha
How it was run: as §1

[12] = tested on: VIOTR; test: Pre-emergence herbicidal action against VIOTR; type: in vivo, Viola tricolor
How it was run: as §1

[13] = tested on: DIGSA; test: Pre-emergence herbicidal action against DIGSA; type: in vivo, Digitaria sanguinalis
How it was run: as §1

[14] = tested on: PHBPU; test: Pre-emergence herbicidal action against PHBPU; type: in vivo, Pharbitis purpurea; details: dosage 80 g/ha
How it was run: as §1

[15] = tested on: VIOTR; test: Post-emergence herbicidal action against VIOTR; type: in vivo, Viola tricolor; details: 20 g/ha
How it was run: as §2

[16] = tested on: STEME; test: Post-emergence herbicidal action against STEME; type: in vivo, Stellaria media
How it was run: as §2

[17] = tested on: ABUTH; test: Pre-emergence herbicidal action against ABUTH; type: in vivo, Abutilon theophrasti
How it was run: as §1

[18] = tested on: AMARE; test: Pre-emergence herbicidal action against AMARE; type: in vivo, Amaranthus retroflexus
How it was run: as §1

[19] = tested on: ABUTH; test: Post-emergence herbicidal action against ABUTH; type: in vivo, Abutilon theophrasti; details: visual assessment about 3 weeks after treatment vs untreated controls
How it was run: as §2

[20] = tested on: SETVI; test: Post-emergence herbicidal action against SETVI; type: in vivo, Setaria viridis; details: dosage 20 g/ha
How it was run: as §2

[21] = tested on: ECHCG; test: Post-emergence herbicidal action against ECHCG; type: in vivo, Echinochloa crus-galli
How it was run: as §2

[22] = 80 g/ha, scored visually after 3 weeks vs untreated controls (100% = plants have died, 0% = like control plants)

CCNC(=O)c1c(C(F)(F)F)ccc(C(=O)Nc2nnco2)c1SC [Example 5-59] was tested, and the “Pre-emergence action against AVEFA in %” value [1] was 80%, the “Post-emergence action against ALOMY in %” value [2] was 80% and the “Post-emergence action against PHBPU in %” value ([3]; dosage 5 g/ha) was 80%. For the same compound, the “Post-emergence action against PHBPU in %” value ([3]; dosage 20 g/ha) was 90%, the “Pre-emergence action against ECHCG in %” value ([4]; 20 g/ha) was 80% and the “Pre-emergence action against ECHCG in %” value ([4]; 80 g/ha) was 100%. The “Pre-emergence action against STEME in %” value ([5]; dosage 20 g/ha) was 90%, the “Pre-emergence action against STEME in %” value ([5]; dosage 80 g/ha) was 100% and the “Post-emergence action at 20 g/ha against AMARE in %” value [6] was 90%. The “Post-emergence action against HORMU in %” value [7] was 80%, the “Post-emergence action against VERPE in %” value [8] was 80% and the “Post-emergence action against DIGSA in %” value ([9]; 5 g/ha) was 90%. For the same compound, the “Post-emergence action against DIGSA” value ([9]; 20 g/ha) was 90%, the “Pre-emergence action against MATIN in %” value ([10]; dosage 20 g/ha) was 80% and the “Pre-emergence action against MATIN in %” value ([10]; dosage 80 g/ha) was 90%. For the same compound, the “Pre-emergence action against SETVI in %” value [11] was 100%, the “Pre-emergence action against VIOTR in %” value ([12]; dosage 20 g/ha) was 100% and the “Pre-emergence action against VIOTR in %” value ([12]; dosage 80 g/ha) was 100%. The “Pre-emergence action against DIGSA in %” value ([13]; dosage 20 g/ha) was 100%, the “Pre-emergence action against DIGSA in %” value ([13]; dosage 80 g/ha) was 100% and the “Pre-emergence action against PHBPU in %” value [14] was 80%. The “Post-emergence action against VIOTR in %” value [15] was 80%, the “Post-emergence action against STEME in %” value ([16]; 20 g/ha) was 100% and the “Post-emergence action against STEME in %” value ([16]; dosage 5 g/ha) was 90%. For the same compound, the “Pre-emergence action against ABUTH (herbicidal activity)” value [17, 22] was 100%, the “Pre-emergence action against ABUTH (herbicidal activity in percent)” value ([17]; dosage 20 g/ha, scored visually after 3 weeks vs untreated controls, 100% = plants have died, 0% = like control plants) was 100% and the “Pre-emergence action against AMARE in %” value ([18]; 20 g/ha, scored visually after 3 weeks vs untreated controls, 100% = plants have died, 0% = like control plants) was 100%. The “Pre-emergence action against AMARE in %” value [18, 22] was 100%, the “Post-emergence action against ABUTH in %” value ([19]; dosage 5 g/ha) was 90% and the “Post-emergence action against ABUTH in %” value ([19]; dosage 20 g/ha) was 90%. For the same compound, the “Post-emergence action against SETVI in %” value [20] was 90%, the “Post-emergence action against ECHCG in %” value ([21]; dosage 5 g/ha) was 80% and the “Post-emergence action against ECHCG in %” value ([21]; dosage 20 g/ha) was 90%.
